# Assay results: US20250074891A1 (Anaxis Pharma Pty Ltd., priority 2021, published 2025)
# Legend:
# Conditions in all cases: Table 35
# MLKL (full length) = MLKL (full length) (Homo sapiens (Human), UniProt Q8NB16); assay: KINOMEscan binding assay, MLKL (full length)
# Description: (§1) Kinase assays. For most assays, kinase-tagged T7 phage strains were grown in parallel in 24-well blocks in an E. coli host derived from the BL21 strain. E. coli were grown to log-phase and infected with T7 phage from a frozen stock (multiplicity of infection=0.4) and incubated with shaking at 32° C. until lysis (90-150 minutes).
# (§2) The Hill Slope was set to −1.
# RIP3 = RIP3 (Homo sapiens (Human), UniProt Q9Y572); assay: KINOMEscan binding assay, RIP3
# Description: as §1, §2
# RIP1 = RIP1 (Homo sapiens (Human), UniProt Q13546); assay: KINOMEscan binding assay, RIP1
# Chain of RIP1 (Q13546 whole entry): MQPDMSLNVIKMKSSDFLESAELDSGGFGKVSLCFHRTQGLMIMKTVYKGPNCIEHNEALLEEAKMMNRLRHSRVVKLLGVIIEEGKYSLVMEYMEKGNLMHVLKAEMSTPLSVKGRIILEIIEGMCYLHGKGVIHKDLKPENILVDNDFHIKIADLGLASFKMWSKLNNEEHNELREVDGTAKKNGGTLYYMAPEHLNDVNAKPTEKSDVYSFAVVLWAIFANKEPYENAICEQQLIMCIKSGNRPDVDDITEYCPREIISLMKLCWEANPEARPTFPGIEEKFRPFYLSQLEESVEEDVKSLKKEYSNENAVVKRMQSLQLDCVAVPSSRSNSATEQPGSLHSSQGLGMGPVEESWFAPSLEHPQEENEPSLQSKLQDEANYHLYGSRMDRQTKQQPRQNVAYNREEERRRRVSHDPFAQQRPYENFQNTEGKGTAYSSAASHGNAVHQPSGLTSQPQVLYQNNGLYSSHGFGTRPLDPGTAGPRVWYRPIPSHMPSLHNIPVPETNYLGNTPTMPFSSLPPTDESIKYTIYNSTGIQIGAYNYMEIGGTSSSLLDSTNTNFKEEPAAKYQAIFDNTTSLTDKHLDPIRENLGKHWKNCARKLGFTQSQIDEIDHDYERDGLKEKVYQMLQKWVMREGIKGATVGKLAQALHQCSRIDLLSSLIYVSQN
# Chain of RIP3 (Q9Y572 whole entry): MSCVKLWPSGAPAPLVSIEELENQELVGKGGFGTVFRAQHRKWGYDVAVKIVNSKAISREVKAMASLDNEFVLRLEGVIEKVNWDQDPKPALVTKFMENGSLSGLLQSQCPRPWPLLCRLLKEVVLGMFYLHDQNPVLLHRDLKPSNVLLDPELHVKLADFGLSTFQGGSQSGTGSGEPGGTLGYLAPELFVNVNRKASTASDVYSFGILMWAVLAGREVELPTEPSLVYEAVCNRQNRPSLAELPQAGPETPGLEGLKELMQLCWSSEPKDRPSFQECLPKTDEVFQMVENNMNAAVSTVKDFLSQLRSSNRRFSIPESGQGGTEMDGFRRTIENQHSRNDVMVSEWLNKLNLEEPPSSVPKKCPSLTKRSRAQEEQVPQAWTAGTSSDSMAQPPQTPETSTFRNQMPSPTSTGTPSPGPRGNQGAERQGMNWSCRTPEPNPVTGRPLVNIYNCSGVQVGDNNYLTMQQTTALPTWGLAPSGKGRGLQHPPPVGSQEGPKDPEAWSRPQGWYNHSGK
# Chain of MLKL (full length) (Q8NB16 whole entry): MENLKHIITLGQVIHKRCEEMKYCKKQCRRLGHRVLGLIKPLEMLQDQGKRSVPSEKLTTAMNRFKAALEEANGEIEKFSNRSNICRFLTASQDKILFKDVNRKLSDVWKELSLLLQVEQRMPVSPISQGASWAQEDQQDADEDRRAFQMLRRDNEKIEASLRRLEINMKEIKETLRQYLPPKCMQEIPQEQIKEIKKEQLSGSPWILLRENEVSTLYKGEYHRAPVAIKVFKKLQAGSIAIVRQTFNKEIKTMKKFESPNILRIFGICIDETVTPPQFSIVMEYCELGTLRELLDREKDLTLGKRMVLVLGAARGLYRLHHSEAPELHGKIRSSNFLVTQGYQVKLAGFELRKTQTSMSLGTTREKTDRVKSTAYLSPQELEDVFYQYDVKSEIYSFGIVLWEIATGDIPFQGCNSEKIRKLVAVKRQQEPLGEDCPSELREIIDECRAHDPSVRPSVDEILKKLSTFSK
structure (smiles),measurement,setting,value
"Cc1cnc(Nc2[nH]nc(-c3ccc(NS(=O)(=O)CC(F)(F)F)c(OCc4ccc(Cl)c(F)c4)c3)c2C(N)=O)cn1 [Compound 146, 3-(3-((4-chloro-3-fluorobenzyl)oxy)-4-((2,2,2-trifluoroethyl)sulfonamido)phenyl)-5-((5-methylpyrazin-2-yl)amino)-1H-pyrazole-4-carboxamide]",Kd,MLKL (full length),< 0.01 µM
same,Kd,RIP3,> 30 µM
same,Kd,RIP1,> 30 µM
NC(=O)c1c(-c2ccc(NS(=O)(=O)C(F)F)c(OCc3ccc(F)c(F)c3)c2)n[nH]c1Nc1ccccn1 [Compound 226],Kd,MLKL (full length),< 0.01 µM
same,Kd,RIP3,> 30 µM
same,Kd,RIP1,> 30 µM
"C[C@H](Oc1cc(-c2n[nH]c(Nc3cc(C4CCOCC4)ccn3)c2C(N)=O)ccc1NS(=O)(=O)C(F)F)c1ccc(F)cc1 [Compound 287, (S)-3-(4-((difluoromethyl)sulfonamido)-3-(1-(4-fluorophenyl)ethoxy)phenyl)-5-((4-(tetrahydro-2H-pyran-4-yl)pyridin-2-yl)amino)-1H-pyrazole-4-carboxamide]",Kd,MLKL (full length),< 0.01 µM
same,Kd,RIP3,> 30 µM
same,Kd,RIP1,> 30 µM
"CCS(=O)(=O)Nc1ccc(-c2n[nH]c(Nc3cnccn3)c2C(N)=O)cc1OCc1ccc(F)c(F)c1 [Compound 1, 3-(3-((3,4-difluorobenzyl)oxy)-4-(ethylsulfonamido)phenyl)-5-(pyrazin-2-ylamino)-1H-pyrazole-4-carboxamide]",Kd,MLKL (full length),< 0.01 µM
same,Kd,RIP3,> 30 µM
same,Kd,RIP1,> 30 µM
"Cc1cc(Nc2c(C(N)=O)c(-c3ccc(NS(=O)(=O)C(F)F)c(O[C@@H](C)c4ccc(F)cc4)c3)nn2C)no1 [Compound 320, (S)-3-(4-((difluoromethyl)sulfonamido)-3-(1-(4-fluorophenyl)ethoxy)phenyl)-1-methyl-5-((5-methylisoxazol-3-yl)amino)-1H-pyrazole-4-carboxamide]",Kd,MLKL (full length),< 0.01 µM
same,Kd,RIP3,> 30 µM
same,Kd,RIP1,> 30 µM
"CCS(=O)(=O)Nc1ccc(-c2n[nH]c(Nc3cnc(OC)cn3)c2C(N)=O)cc1OCc1ccc(F)cc1 [Compound 14, 3-(4-(ethylsulfonamido)-3-((4-fluorobenzyl)oxy)phenyl) 5-((5-methoxypyrazin-2-yl)amino)-1H-pyrazole-4-carboxamide]",Kd,MLKL (full length),< 0.01 µM
same,Kd,RIP3,> 30 µM
same,Kd,RIP1,> 30 µM
"CCS(=O)(=O)Nc1ccc(-c2n[nH]c(Nc3cnccn3)c2C(N)=O)cc1Oc1cccc(F)c1 [Compound 204, 3-(4-(ethylsulfonamido)-3-(3-fluorophenoxy)phenyl)-5-(pyrazin-2-ylamino)-1H-pyrazole-4-carboxamide]",Kd,MLKL (full length),< 0.01 µM
same,Kd,RIP3,> 30 µM
same,Kd,RIP1,> 30 µM
"NC(=O)c1c(-c2ccc(NS(=O)(=O)CC(F)(F)F)c(Oc3cccc(F)c3)c2)n[nH]c1Nc1cnccn1 [Compound 167, 3-(3-(3-fluorophenoxy)-4-((2,2,2-trifluoroethyl)sulfonamido)phenyl)-5-(pyrazin-2-ylamino)-1H-pyrazole-4-carboxamide]",Kd,MLKL (full length),< 0.01 µM
same,Kd,RIP3,> 30 µM
same,Kd,RIP1,> 30 µM
"Cc1cnc(Nc2[nH]nc(-c3ccc(NS(=O)(=O)CC(F)(F)F)c(OCc4ccc(F)cc4)c3)c2C(N)=O)cn1 [Compound 163, 3-(3-((4-fluorobenzyl)oxy)-4-((2,2,2-trifluoroethyl)sulfonamido)phenyl)-5-((5-methylpyrazin-2-yl)amino)-1H-pyrazole-4-carboxamide]",Kd,MLKL (full length),< 0.01 µM
same,Kd,RIP3,> 30 µM
same,Kd,RIP1,> 30 µM
"NC(=O)c1c(-c2ccc(NS(=O)(=O)CC(F)(F)F)c(OCc3ccc(Cl)cn3)c2)n[nH]c1Nc1cnccn1 [Compound 262, 3-{3-[(5-chloropyridin-2-yl)methoxy]-4-(2,2,2-trifluoroethane-sulfonamido)phenyl}-5-[(pyrazin-2-yl)amino]-1H-pyrazole-4-carboxamide]",Kd,MLKL (full length),< 0.01 µM
same,Kd,RIP3,> 30 µM
same,Kd,RIP1,> 30 µM
"NC(=O)c1c(-c2ccc(NS(=O)(=O)C(F)F)cc2)n[nH]c1Nc1ccccn1 [Compound 48, 3-(4-((difluoromethyl)sulfonamido)phenyl)-5-(pyridin-2-ylamino)-1H-pyrazole-4-carboxamide]",Kd,MLKL (full length),< 0.01 µM
same,Kd,RIP3,> 30 µM
same,Kd,RIP1,> 30 µM
"CCS(=O)(=O)Nc1ccc(-c2n[nH]c(Nc3cnc(C4CC4)cn3)c2C(N)=O)cc1 [Compound 158, 5-((5-cyclopropylpyrazin-2-yl)amino)-3-(4-(ethylsulfonamido)phenyl)-1H-pyrazole-4-carboxamide]",Kd,MLKL (full length),< 0.01 µM
same,Kd,RIP3,> 30 µM
same,Kd,RIP1,> 30 µM
"CCS(=O)(=O)Nc1ccc(-c2n[nH]c(Nc3cnccn3)c2C(N)=O)cc1OCc1ccc(F)cc1 [Compound 62, 3-(4-(ethylsulfonamido)-3-((4-fluorobenzyl)oxy)phenyl) 5-(pyrazin-2-ylamino)-1H pyrazole-4-carboxamide]",Kd,MLKL (full length),< 0.01 µM
same,Kd,RIP3,> 30 µM
same,Kd,RIP1,> 30 µM
"COc1cnc(Nc2[nH]nc(-c3ccc(NS(=O)(=O)C(F)F)c(OCc4ccc(Cl)cc4)c3)c2C(N)=O)cn1 [Compound 190, 3-(3-((4-chlorobenzyl)oxy)-4-((difluoromethyl)sulfonamido)phenyl)-5-((5-methoxypyrazin-2-yl)amino)-1H-pyrazole-4-carboxamide]",Kd,MLKL (full length),< 0.01 µM
same,Kd,RIP3,> 30 µM
same,Kd,RIP1,> 30 µM
CCS(=O)(=O)Nc1ccc(-c2n[nH]c(Nc3ccccn3)c2C(N)=O)c(OCc2ccc(F)cc2)c1 [Compound 201],Kd,MLKL (full length),< 0.01 µM
same,Kd,RIP3,> 30 µM
same,Kd,RIP1,> 30 µM
"C[C@H](Oc1cc(-c2n[nH]c(Nc3cc(C4(C)CC4)on3)c2C(N)=O)ccc1NS(=O)(=O)C(F)F)c1ccc(F)cc1 [Compound 276, (S)-3-(4-((difluoromethyl)sulfonamido)-3-(1-(4-fluorophenyl)ethoxy)phenyl)-5-((5-(1-methylcyclopropyl)isoxazol-3-yl)amino)-1H-pyrazole-4-carboxamide]",Kd,MLKL (full length),< 0.01 µM
same,Kd,RIP3,> 30 µM
same,Kd,RIP1,> 30 µM
"C[C@H](Oc1cc(-c2n[nH]c(Nc3cnccn3)c2C(N)=O)ccc1NS(=O)(=O)CC(F)(F)F)c1ccc(Cl)cc1 [Compound 259, 3-{3-[(1S)-1-(4-chlorophenyl)ethoxy]-4-(2,2,2-trifluoroethane-sulfonamido)phenyl}-5-[(pyrazin-2-yl)amino]-1H-pyrazole-4-carboxamide]",Kd,MLKL (full length),< 0.01 µM
same,Kd,RIP3,> 30 µM
same,Kd,RIP1,> 30 µM
"CCS(=O)(=O)Nc1ccc(-c2n[nH]c(Nc3cnccn3)c2C(N)=O)cc1OC(C)(C)c1ccc(F)cc1 [Compound 228, 3-(4-ethanesulfonamido-3-{[2-(4-fluorophenyl)propan-2-yl]oxy}phenyl)-5-[(pyrazin-2-yl)amino]-1H-pyrazole-4-carboxamide]",Kd,MLKL (full length),< 0.01 µM
same,Kd,RIP3,> 30 µM
same,Kd,RIP1,> 30 µM
"NC(=O)c1c(-c2ccc(NS(=O)(=O)CC(F)(F)F)cc2)n[nH]c1Nc1ccccn1 [Compound 268, 5-[(pyridin-2-yl)amino]-3-[4-(2,2,2-trifluoroethanesulfonamido)phenyl]-1H-pyrazole-4-carboxamide]",Kd,MLKL (full length),< 0.01 µM
same,Kd,RIP3,> 30 µM
same,Kd,RIP1,> 30 µM
"CCS(=O)(=O)Nc1ccc(-c2n[nH]c(Nc3ccnc(C)c3)c2C(N)=O)cc1 [Compound 113, 3-(4-(ethylsulfonamido)phenyl)-5-((2-methylpyridin-4-yl)amino)-1H-pyrazole-4-carboxamide]",Kd,MLKL (full length),< 0.01 µM
same,Kd,RIP3,> 30 µM
same,Kd,RIP1,> 30 µM
"CCS(=O)(=O)Nc1ccc(-c2n[nH]c(Nc3cccc(C(F)F)n3)c2C(N)=O)cc1OCc1ccc(F)cc1 [Compound 179, 5-((6-(difluoromethyl)pyridine-2-yl)amino)-3-(4-(ethylsulfonamido)-3-((4-fluorobenzyl)oxy)phenyl)-1H-pyrazole-4-carboxamide]",Kd,MLKL (full length),< 0.01 µM
same,Kd,RIP3,> 30 µM
same,Kd,RIP1,> 30 µM
"C[C@H](Oc1cc(-c2n[nH]c(Nc3cc(C4CCOCC4)on3)c2C(N)=O)ccc1NS(=O)(=O)C(F)F)c1ccc(F)cc1 [Compound 303, (S)-3-(4-((difluoromethyl)sulfonamido)-3-(1-(4-fluorophenyl)ethoxy)phenyl)-5-((5-(tetrahydro-2H-pyran-4-yl)isoxazol-3-yl)amino)-1H-pyrazole-4-carboxamide]",Kd,MLKL (full length),< 0.01 µM
same,Kd,RIP3,> 30 µM
same,Kd,RIP1,> 30 µM
"NC(=O)c1c(-c2ccc(NS(=O)(=O)C3CC3)c(OCc3ccc(F)cc3)c2)n[nH]c1Nc1cnccn1 [Compound 169, 3-(4-(cyclopropanesulfonamido)-3-((4-fluorobenzyl)oxy)phenyl)-5-(pyrazin-2-ylamino)-1H-pyrazole-4-carboxamide]",Kd,MLKL (full length),< 0.01 µM
same,Kd,RIP3,> 30 µM
same,Kd,RIP1,> 30 µM
"NC(=O)c1c(-c2ccc(NS(=O)(=O)C(F)F)c(OCc3ccc(F)c(F)c3)c2)n[nH]c1Nc1cccc(C(F)(F)F)n1 [Compound 151, 3-(3-((3,4-difluorobenzyl)oxy)-4-((difluoromethyl)sulfonamido)phenyl)-5-((6-(trifluoromethyl)pyridine-2-yl)amino)-1H-pyrazole-4-carboxamide]",Kd,MLKL (full length),< 0.01 µM
same,Kd,RIP3,> 30 µM
same,Kd,RIP1,> 30 µM
"C[C@H](Oc1cc(-c2n[nH]c(Nc3cc(C(C)(C)C)on3)c2C(N)=O)ccc1NS(=O)(=O)C(F)F)c1ccc(F)cc1 [Compound 282, (S)-5-((5-(tert-butyl)isoxazol-3-yl)amino)-3-(4-((difluoromethyl)sulfonamido)-3-(1-(4-fluorophenyl)ethoxy)phenyl)-1H-pyrazole-4-carboxamide]",Kd,MLKL (full length),< 0.01 µM
same,Kd,RIP3,> 30 µM
same,Kd,RIP1,> 30 µM
"CCS(=O)(=O)Nc1ccc(-c2n[nH]c(Nc3cnccn3)c2C(N)=O)cc1O[C@@H](C)c1ccccn1 [Compound 230, 3-{4-ethanesulfonamido-3-[(1S)-1-(pyridin-2-yl)ethoxy]phenyl}-5-[(pyrazin-2-yl)amino]-1H-pyrazole-4-carboxamide]",Kd,MLKL (full length),< 0.01 µM
same,Kd,RIP3,> 30 µM
same,Kd,RIP1,> 30 µM
